Consider 15 molecules from US11473089B2, “Aptamer for ADAMTS5 and use for aptamer for ADAMTS5” (RIBOMIC INC., priority 2017, dated 2022).

The chains are these.
B1: 2 (nucleic acid)
chain: GGGUACGACCGUCGUACGAUUGGGCCUCCACAGCUGCUCAGCUUGGACUAAACCAAUAAGAGACUAACGCCUAGCGUAC
modifications: 2'-fluoro at CU, RNA at AG, backbone not given here

The first series addresses T1, ADAMTS5 (Homo sapiens, UniProt Q9UNA0).
T1 construct: purchased R&D systems
T1 sequence (Q9UNA0 262-930): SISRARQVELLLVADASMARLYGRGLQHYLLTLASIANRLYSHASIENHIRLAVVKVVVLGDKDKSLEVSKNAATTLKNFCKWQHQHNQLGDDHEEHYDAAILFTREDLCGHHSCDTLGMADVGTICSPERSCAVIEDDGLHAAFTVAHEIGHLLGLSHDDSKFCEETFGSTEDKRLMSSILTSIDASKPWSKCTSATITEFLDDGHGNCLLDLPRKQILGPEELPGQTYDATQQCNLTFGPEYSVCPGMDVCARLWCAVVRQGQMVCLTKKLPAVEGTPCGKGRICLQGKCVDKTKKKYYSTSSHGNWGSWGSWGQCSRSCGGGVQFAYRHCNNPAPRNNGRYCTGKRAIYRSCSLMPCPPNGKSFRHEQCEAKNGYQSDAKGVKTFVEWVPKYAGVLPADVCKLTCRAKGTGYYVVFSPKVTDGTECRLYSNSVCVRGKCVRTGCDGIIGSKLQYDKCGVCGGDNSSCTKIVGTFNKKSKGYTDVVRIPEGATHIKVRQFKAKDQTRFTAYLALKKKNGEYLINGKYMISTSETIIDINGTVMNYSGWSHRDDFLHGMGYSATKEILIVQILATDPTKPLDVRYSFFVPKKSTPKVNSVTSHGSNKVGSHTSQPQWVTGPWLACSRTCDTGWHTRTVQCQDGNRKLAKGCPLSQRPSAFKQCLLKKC
Description: binding activity to ADAMTS5 by surface plasmon resonance (Biacore T100). The settings on record: Table 1; 0.1 μM ADAMTS5 analyte, aptamer immobilized on SA chip. As for the experimental part:
The binding activity of aptamers having the nucleotide sequences shown in SEQ ID NOs: 1 and 2 to ADAMTS5 was evaluated by the surface plasmon resonance method. Biacore T100 manufactured by GE Healthcare was used for the measurement. The SA chip was used as the sensor chip, which had streptavidin immobilized thereon. About 800 RU of a 16-nucleotide Poly dT with biotin at the 5′-terminal was bound on the chip. […] ADAMTS5 for analyte was prepared at 0.1 μM, and injected at a flow rate of 30 μL/min for 60 sec. As the running buffer, solution C was used. The solution C is a mixed solution of 300 mM sodium chloride, 5.4 mM potassium chloride, 1.8 mM calcium chloride, 0.8 mM magnesium chloride, 20 mM tris (pH 7.6), and 0.05% Tween20.
SEQ ID NO: 2 has a sequence with one base deletion from the continuous 4 G bases in the consensus sequence, and it was shown from the measurement results of the binding activity that the continuous 4 G bases in the consensus sequence are important for the activity of aptamers. Sensorgram showing the binding of an aptamer having the nucleotide sequence shown in SEQ ID NO: 1 to ADAMTS5 is presented in FIG. 2. In Table 1, “++” indicates those with the proportion of ADAMTS5 binding amount (RU value) to the amount of aptamer immobilized on the SA chip (RU value) of not less than 40%, “+” indicates those with the proportion of not less than 10% and less than 40%, and “−” indicates those with the proportion of less than 10%.
The binding activity and enzyme inhibitory activity of aptamers having nucleotide sequences shown in SEQ ID NOs: 16-25 to ADAMTS5 were measured. The binding activity was evaluated by the surface plasmon resonance method. For the measurement, a method similar to that in Example 1 was used. The enzyme inhibitory activity was measured by a method similar to that in Example 1. […] The negative control nucleic acid refers to the nucleic acid pool used in the first round of the SELEX method. The “++” indicates those with the proportion of ADAMTS5 binding amount (RU value) to the amount of aptamer immobilized on the SA chip (RU value) of not less than 40%, and “+” indicates those with the proportion of less than 40%. […] “n.d.” means not determined.
The binding activity of the nucleic acids shown in SEQ ID NOs: 30-45 to ADAMTS5 was measured. The binding activity was evaluated by the surface plasmon resonance method. In the Table, “++” indicates those with the proportion of ADAMTS5 binding amount (RU value) to the amount of aptamer immobilized on the SA chip (RU value) of not less than 40%, “+” indicates those with the proportion of not less than 10% and less than 40%, and “−” indicates those with the proportion of less than 10%.
For orientation: Surface plasmon resonance follows binding to a sensor surface in real time, without labels.
As for B1, the “binding activity by Biacore” value is reported as “− (proportion of less than 10%)”.

Still in this series, the particulars now being: Table 10.
Regarding “32 (GGGUAUUGGGGCCUCCACAGAAAAAUCUUGGACUAAACCAAUCUCGA; aptamer; 2'-fluoro at CU, RNA at AG, backbone not given here) [compound 32]”, the binding activity result is “++ (proportion of ADAMTS5 binding amount (RU value) to the amount of aptamer immobilized on the SA chip (RU value) of not less than 40%)”.
Turning to “33 (GGGUAUUGGGGCCUCCACAGCCGAGGCUUGGACUAAACCAAUCUCGA; aptamer; 2'-fluoro at CU, RNA at AG, backbone not given here) [compound 33]”, the binding activity result is “++ (proportion of ADAMTS5 binding amount (RU value) to the amount of aptamer immobilized on the SA chip (RU value) of not less than 40%)”.
For the molecule “34 (GGGUAUUGGGGCCUCCACAGAAAAAACUUGGACUAAACCAACUCGA; aptamer; 2'-fluoro at CU, RNA at AG, backbone not given here) [compound 34]”, the binding activity result is given as “++ (proportion of ADAMTS5 binding amount (RU value) to the amount of aptamer immobilized on the SA chip (RU value) of not less than 40%)”.
Same read-out and setting: with “35 (GGGUAUUGGGGCCUCCACAGUAAGCACUUGGACUAAACCAGCUCGA; aptamer; 2'-fluoro at CU, RNA at AG, backbone not given here) [compound 35]” the entry was “++ (proportion of ADAMTS5 binding amount (RU value) to the amount of aptamer immobilized on the SA chip (RU value) of not less than 40%)”; with “36 (GGGUAUUGGGGCCUCCACAGUUUAAACUUGGACUAAACCAACUCGA; aptamer; 2'-fluoro at CU, RNA at AG, backbone not given here) [compound 36]”, “++ (proportion of ADAMTS5 binding amount (RU value) to the amount of aptamer immobilized on the SA chip (RU value) of not less than 40%)”; with “37 (GGGUAUUGGGGCCUCCACAGUAAAUUCUUGGACUAAACCAACUCGA; aptamer; 2'-fluoro at CU, RNA at AG, backbone not given here) [compound 37]”, “++ (proportion of ADAMTS5 binding amount (RU value) to the amount of aptamer immobilized on the SA chip (RU value) of not less than 40%)”.
Take “38 (GGGUAUUGGGGCCUCCACGCUAGAAGGCUGGACUAAACCAACUCGA; aptamer; 2'-fluoro at CU, RNA at AG, backbone not given here) [compound 38]”: the binding activity result is listed as “++ (proportion of ADAMTS5 binding amount (RU value) to the amount of aptamer immobilized on the SA chip (RU value) of not less than 40%)”.
On to “39 (GGGUAUUGGGGCCUCCACGUAACUAAACUGGACUAAACCAACUCGA; aptamer; 2'-fluoro at CU, RNA at AG, backbone not given here) [compound 39]”, for which the binding activity result is on record as “++ (proportion of ADAMTS5 binding amount (RU value) to the amount of aptamer immobilized on the SA chip (RU value) of not less than 40%)”.
In the case of “40 (GGGUAUUGGGGCCUCCACGCAAUGGUGCUGGACUAAACCAACUCGA; aptamer; 2'-fluoro at CU, RNA at AG, backbone not given here) [compound 40]”, the binding activity result was “++ (proportion of ADAMTS5 binding amount (RU value) to the amount of aptamer immobilized on the SA chip (RU value) of not less than 40%)”.
With “41 (GGGUAUUGGGGCCUCCACAUGGAUACAUUGGACUAAACCAACUCGA; aptamer; 2'-fluoro at CU, RNA at AG, backbone not given here) [compound 41]”, the binding activity result was “++ (proportion of ADAMTS5 binding amount (RU value) to the amount of aptamer immobilized on the SA chip (RU value) of not less than 40%)”.
Still for that read-out and setting: with “42 (GGGUAUUGGGGCCUCCACAGAUAAUUCUUGGACUAAACCAACUCGA; aptamer; 2'-fluoro at CU, RNA at AG, backbone not given here) [compound 42]” the entry was “++ (proportion of ADAMTS5 binding amount (RU value) to the amount of aptamer immobilized on the SA chip (RU value) of not less than 40%)”; with “43 (GGGUAUUGGGGCCUCCACAGAAAAUUCUUGGACUAAACCAACUCGA; aptamer; 2'-fluoro at CU, RNA at AG, backbone not given here) [compound 43]”, “++ (proportion of ADAMTS5 binding amount (RU value) to the amount of aptamer immobilized on the SA chip (RU value) of not less than 40%)”.
Turning to “44 (GGGUAUUGGGGCCUCCACAGAACUUUCUUGGACUAAACCAACUCGA; aptamer; 2'-fluoro at CU, RNA at AG, backbone not given here) [compound 44]”, the binding activity entry is “++ (proportion of ADAMTS5 binding amount (RU value) to the amount of aptamer immobilized on the SA chip (RU value) of not less than 40%)”.
Same read-out and setting: in the case of “45 (GGGUAUUGGGGCCUCCACAGAAAAGUCUUGGACUAAACCAACUCGA; aptamer; 2'-fluoro at CU, RNA at AG, backbone not given here) [compound 45]” it was “++ (proportion of ADAMTS5 binding amount (RU value) to the amount of aptamer immobilized on the SA chip (RU value) of not less than 40%)”.

Still in this series, the particulars now being: surface plasmon resonance.
In the case of B1, the “binding to ADAMTS5 (in words)” value is recorded as “did not bind to ADAMTS5”.
